According to US20210261642A1, “SOLUBILITY OF GLP-1 PEPTIDE” (Novo Nordisk A/S, priority 2017, published 2021):
≈ marks a conversion by molar mass, not a printed value. Read-outs that look alike come from different tables or passages of the source.

Test: Assay (I): Determination of Solubility (96-well plate, pH 3.0-11.0, organic solvent 0-70% w/w, UV absorption at 280 nm)
Assay type: physicochemical
Details: for GLP-1 peptide concentration: Method 2 (precipitation), 5° C.; for solubility thermodynamic at 24 h: read-out: Peptide concentration after 24 h
Method: Assay (I): Determination of Solubility
96-Well Plate Preparation
96-well plates containing target peptide in a solid form were prepared in one of two ways:
Method 1 (evaporation): Addition of 100 μl stock solution of said peptide at a concentration of 4-6 mg/ml to each well of a 96-well half area plate (150 μl well size). Subsequently the solvent was evaporated by applying a vacuum until the solvent was completely removed.
Method 2 (precipitation): Addition of a certain volume of a stock solution of said peptide containing to each well of a 96-well half area plate followed by the addition of a certain volume of concentrated phosphoric acid to obtain a pH of 4.6 followed by addition of a certain volume of ethanol resulting in a final ethanol concentration of 20% v/v. Subsequently the plate was stored at 4° C. for 1 h and then centrifuged at 4,000 rpm for 20 min. Finally the supernatant was removed. The concentration of the stock solution was chosen in a way that the final amount of peptide after supernatant removal was >0.4 mg per well.
In both cases the stock solution was prepared by adding de-ionized water to a certain amount of powder of said peptide followed by a stepwise addition of small amounts of a concentrated sodium hydroxide solution until said peptide was completely in solution.
To determine solubility of a target peptide at different pH and organic solvent concentrations, two different buffer systems were used in independent experiments to cover the whole range from pH 3.0 to pH 11.0. Buffer system 1 covers pH 3.0-7.5 and buffer system 2 covers pH 7.5-11.0. For each buffer system 96 different solvent compositions were premixed in the following way: • 1. A low pH buffer (adjusted to either pH 3.0 or pH 7.5) and a high pH buffer (adjusted to either pH 7.5 or pH 11.0) were mixed at 8 different ratios to obtain values between pH 3.0 and pH 7.5 or pH 7.5 and pH 11.0, respectively. The total volume after mixing was 300 μl. • 2. 12 different amounts of organic solvent were then added to these buffers to obtain organic solvent (e.g. ethanol) concentrations between 0 and 70% w/w. • 3. Water was then added to obtain a total weight of 1.0 g of solvent in each well.
After preparing the 96 different solvent systems, 100 μl of each system was transferred to the 96-well plate containing the solid form of the target peptide (prepared as described in the section “96-well plate preparation”). The plate was then stored at a given temperature (between 5° C. and 70° C.) for a given time on a rotating shaker set to 400 rpm. At regular time intervals the plate was centrifuged (4,000 rpm for 10 min) and a 10 μl sample was taken from each well. The samples were then analysed by UV absorption at 280 nm for peptide quantification. Peptide concentration results are given as UV absorption at 280 nm of the sample subtracted UV absorption at 280 nm of a well comprising 10 μl water.
The buffers used were as follows: • Buffer system 1 (for the pH range from pH 3.0-7.5)
• Buffer system 2 (for the pH ranae from pH 7.5-11.0)
Solubility of liraglutide was determined using Assay (I) described herein. Liraglutide was prepared using Method 1 (evaporation) or Method 2 (precipitation) as described in subsection “96-well plate preparation”.

## CCCCCCCCCCCCCCCC(=O)N[C@@H](CCC(=O)NCCCC[C@H](NC(=O)[C@H](C)NC(=O)[C@H](C)NC(=O)[C@H](CCC(N)=O)NC(=O)CNC(=O)[C@H](CCC(=O)O)NC(=O)[C@H](CC(C)C)NC(=O)[C@H](Cc1ccc(O)cc1)NC(=O)[C@H](CO)NC(=O)[C@H](CO)NC(=O)[C@@H](NC(=O)[C@H](CC(=O)O)NC(=O)[C@H](CO)NC(=O)[C@@H](NC(=O)[C@H](Cc1ccccc1)NC(=O)[C@@H](NC(=O)CNC(=O)[C@H](CCC(=O)O)NC(=O)[C@H](C)NC(=O)[C@@H](N)Cc1cnc[nH]1)[C@@H](C)O)[C@@H](C)O)C(C)C)C(=O)N[C@@H](CCC(=O)O)C(=O)N[C@@H](Cc1ccccc1)C(=O)N[C@H](C(=O)N[C@@H](C)C(=O)N[C@@H](Cc1c[nH]c2ccccc12)C(=O)N[C@@H](CC(C)C)C(=O)N[C@H](C(=O)N[C@@H](CCCNC(=N)N)C(=O)NCC(=O)N[C@@H](CCCNC(=N)N)C(=O)NCC(=O)O)C(C)C)[C@@H](C)CC)C(=O)O [liraglutide, Arg34,Lys26-(N-epsilon-(gamma-L-glutamyl(N-alfa-hexadecanoyl)))-GLP-1(7-37)]
MeCN 63.6% w/w, pH 10.00, 5 min, before removal of outliers
  GLP-1 peptide concentration: 0.4 mg/mL
MeCN 63.6% w/w, pH 10.00, 180 min, after removal of outliers
  GLP-1 peptide concentration: 2.9 mg/mL
MeCN 63.6% w/w, pH 10.00, 180 min, before removal of outliers
  GLP-1 peptide concentration: 2.9 mg/mL
MeCN 63.6% w/w, pH 10.00, 24 h, after removal of outliers
  GLP-1 peptide concentration: 1.0 mg/mL
MeCN 63.6% w/w, pH 10.00, 24 h, before removal of outliers
  GLP-1 peptide concentration: 1.0 mg/mL
MeCN 63.6% w/w, pH 10.50, 5 min, after removal of outliers
  GLP-1 peptide concentration: 0.6 mg/mL
MeCN 63.6% w/w, pH 10.50, 5 min, before removal of outliers
  GLP-1 peptide concentration: 0.6 mg/mL
MeCN 63.6% w/w, pH 10.50, 180 min, after removal of outliers
  GLP-1 peptide concentration: 3.4 mg/mL
MeCN 63.6% w/w, pH 10.50, 180 min, before removal of outliers
  GLP-1 peptide concentration: 3.4 mg/mL
MeCN 63.6% w/w, pH 10.50, 24 h, after removal of outliers
  GLP-1 peptide concentration: 1.3 mg/mL
MeCN 63.6% w/w, pH 10.50, 24 h, before removal of outliers
  GLP-1 peptide concentration: 1.3 mg/mL
MeCN 63.6% w/w, pH 11.00, 5 min, after removal of outliers
  GLP-1 peptide concentration: 0.5 mg/mL
MeCN 63.6% w/w, pH 11.00, 5 min, before removal of outliers
  GLP-1 peptide concentration: 0.5 mg/mL
MeCN 63.6% w/w, pH 11.00, 180 min, after removal of outliers
  GLP-1 peptide concentration: 3.2 mg/mL
MeCN 63.6% w/w, pH 11.00, 180 min, before removal of outliers
  GLP-1 peptide concentration: 3.2 mg/mL
MeCN 63.6% w/w, pH 11.00, 24 h, after removal of outliers
  GLP-1 peptide concentration: 1.0 mg/mL
MeCN 63.6% w/w, pH 11.00, 24 h, before removal of outliers
  GLP-1 peptide concentration: 1.0 mg/mL
MeCN 70.0% w/w, pH 7.50, 5 min, before removal of outliers
  GLP-1 peptide concentration: 0.3 mg/mL
MeCN 70.0% w/w, pH 7.50, 180 min, before removal of outliers
  GLP-1 peptide concentration: 0.7 mg/mL
MeCN 70.0% w/w, pH 7.50, 24 h, before removal of outliers
  GLP-1 peptide concentration: 1.6 mg/mL
MeCN 70.0% w/w, pH 8.00, 5 min, after removal of outliers
  GLP-1 peptide concentration: 0.4 mg/mL
MeCN 70.0% w/w, pH 8.00, 5 min, before removal of outliers
  GLP-1 peptide concentration: 0.4 mg/mL
MeCN 70.0% w/w, pH 8.00, 180 min, after removal of outliers
  GLP-1 peptide concentration: 1.0 mg/mL
MeCN 70.0% w/w, pH 8.00, 180 min, before removal of outliers
  GLP-1 peptide concentration: 1.0 mg/mL
MeCN 70.0% w/w, pH 8.00, 24 h, after removal of outliers
  GLP-1 peptide concentration: 2.5 mg/mL
MeCN 70.0% w/w, pH 8.00, 24 h, before removal of outliers
  GLP-1 peptide concentration: 2.5 mg/mL
MeCN 70.0% w/w, pH 8.50, 5 min, after removal of outliers
  GLP-1 peptide concentration: 0.4 mg/mL
MeCN 70.0% w/w, pH 8.50, 5 min, before removal of outliers
  GLP-1 peptide concentration: 0.4 mg/mL
MeCN 70.0% w/w, pH 8.50, 180 min, after removal of outliers
  GLP-1 peptide concentration: 1.4 mg/mL
MeCN 70.0% w/w, pH 8.50, 180 min, before removal of outliers
  GLP-1 peptide concentration: 1.4 mg/mL
MeCN 70.0% w/w, pH 8.50, 24 h, after removal of outliers
  GLP-1 peptide concentration: 3.3 mg/mL
MeCN 70.0% w/w, pH 8.50, 24 h, before removal of outliers
  GLP-1 peptide concentration: 3.3 mg/mL
MeCN 70.0% w/w, pH 9.00, 5 min, after removal of outliers
  GLP-1 peptide concentration: 0.4 mg/mL
MeCN 70.0% w/w, pH 9.00, 5 min, before removal of outliers
  GLP-1 peptide concentration: 0.4 mg/mL
MeCN 70.0% w/w, pH 9.00, 180 min, after removal of outliers
  GLP-1 peptide concentration: 1.5 mg/mL
MeCN 70.0% w/w, pH 9.00, 180 min, before removal of outliers
  GLP-1 peptide concentration: 1.5 mg/mL
MeCN 70.0% w/w, pH 9.00, 24 h, after removal of outliers
  GLP-1 peptide concentration: >4.0 mg/mL
MeCN 70.0% w/w, pH 9.00, 24 h, before removal of outliers
  GLP-1 peptide concentration: >4.0 mg/mL
MeCN 70.0% w/w, pH 9.50, 5 min, after removal of outliers
  GLP-1 peptide concentration: 0.5 mg/mL
MeCN 70.0% w/w, pH 9.50, 5 min, before removal of outliers
  GLP-1 peptide concentration: 0.5 mg/mL
MeCN 70.0% w/w, pH 9.50, 180 min, before removal of outliers
  GLP-1 peptide concentration: 1.9 mg/mL
MeCN 70.0% w/w, pH 9.50, 24 h, before removal of outliers
  GLP-1 peptide concentration: >4.0 mg/mL
Aqueous buffer / organic solvent mixture, pH 3.1, aqueous buffer, DMF 0.0% w/w, pH 3.1, RT, Method 1 (evaporation)
  solubility thermodynamic at 24 h: 300 µg/mL (≈ 80 µM)
Aqueous buffer / organic solvent mixture, pH 4.8, aqueous buffer, DMF 0.0% w/w, pH 4.8, RT, Method 1 (evaporation)
  solubility thermodynamic at 24 h: 200 µg/mL (≈ 53.3 µM)
Aqueous buffer / organic solvent mixture, pH 5.8, aqueous buffer, DMF 0.0% w/w, pH 5.8, RT, Method 1 (evaporation)
  solubility thermodynamic at 24 h: 1500 µg/mL (≈ 400 µM)
Aqueous buffer / organic solvent mixture, pH 6.7, aqueous buffer, DMF 0.0% w/w, pH 6.7, RT, Method 1 (evaporation)
  solubility thermodynamic at 24 h: 2200 µg/mL (≈ 586 µM)
pH 3, aqueous buffer, MeCN 0.0% w/w, pH 3.0, RT, Method 1
  solubility thermodynamic at 24 h: 100 µg/mL (≈ 26.7 µM)
pH 3.6, aqueous buffer, MeCN 0.0% w/w, pH 3.6, RT, Method 1
  solubility thermodynamic at 24 h: 100 µg/mL (≈ 26.7 µM)
pH 4.9, aqueous buffer, MeCN 0.0% w/w, pH 4.9, 5° C., Method 1
  solubility thermodynamic at 24 h: 100 µg/mL (≈ 26.7 µM)
pH 6.2, aqueous buffer, MeCN 0.0% w/w, pH 6.2, 5° C., Method 1
  solubility thermodynamic at 24 h: 100 µg/mL (≈ 26.7 µM)
pH 6.2, aqueous buffer, MeCN 0.0% w/w, pH 6.2, RT, Method 1
  solubility thermodynamic at 24 h: 500 µg/mL (≈ 133 µM)
Premixed buffer/organic solvent/water solvent system, pH 4.3, aqueous buffer, MeCN 0.0% w/w, pH 4.3, 5° C., Method 1
  solubility thermodynamic at 24 h: 200 µg/mL (≈ 53.3 µM)
